Reference: patent US6569863B1, “Bicyclic heteroamatic compounds useful as LH agonists” (Akzo Nobel NV, priority 1999, dated 2003)

Legend:
[1] = system: immature female mice; assay: In vivo ovulation induction assay for LH bioactivity in immature female mice; parameters: species or system mouse; details: 50 mg/kg p.o., FSH-primed immature female mice, 24 h after administration
Description: In female immature mice which are stimulated with follicle stimulating hormone (FSH), ovulation can be induced by luteininzing hormone (LH) or by human chorionic gonadotrophin (hCG) which binds to the same LH-receptor on the Graafian follicles. Binding to the LH-receptor initiates a biochemical cascade, which eventually results in follicular rupture and extrusion of a mature oocyte. To measure the in vivo activity of LH-agonistic compounds, inunature 20 days old mice (B6D2F1 stain, Broekman Institute, the Netherlands) are primed with unary FSH (Humegon; 12.5 IU/l, 0.1 ml s.c.) to initiate folliculogenesis. Forty-eight hours after FSH treatment test compound, reference compound or vehicle (10% cremophor solution) are administered to the animals. Test compounds (50 mg/kg in 0.1 ml) and vehicle (0.1 ml) are administered p.o., reference compounds (500 IU/kg hCG in 0.1 ml) are injected s.c. As a reference, hCG in-house standards are used which are calibrated against International Reference preparations of human hCG provided by the National Institute for Biological Standards and Controls (NMSC, London, UK). Twenty-four hours after administration of test compound, reference compound or vehicle, animals are killed by cervical dislocation. The oviducts are dissected and collected in 0.9% NaCl. Next, the oviducts are placed between two glass plates and examined for the presence or absence of ovulated ova under a microscope. The number of ovulated ova present in the oviducts is indicative for in vivo LH-bioactivity.

[2] = biological target: T1, Leydig cell LH receptor (Mus musculus, UniProt P30730); assay: In vitro test for LH bioactivity in mouse Leydig cells (testosterone production); format: cell-based; details: 4 h incubation, testosterone measured by RIA
T1 construct: Leydig cells are isolated from the testes of mature, 9 to 13 weeks old, mice; from tissue; host or cells: primary Leydig cells from mouse testes (strain HSD/Cpb: S E, Harlan)
T1 sequence (P30730 27-700): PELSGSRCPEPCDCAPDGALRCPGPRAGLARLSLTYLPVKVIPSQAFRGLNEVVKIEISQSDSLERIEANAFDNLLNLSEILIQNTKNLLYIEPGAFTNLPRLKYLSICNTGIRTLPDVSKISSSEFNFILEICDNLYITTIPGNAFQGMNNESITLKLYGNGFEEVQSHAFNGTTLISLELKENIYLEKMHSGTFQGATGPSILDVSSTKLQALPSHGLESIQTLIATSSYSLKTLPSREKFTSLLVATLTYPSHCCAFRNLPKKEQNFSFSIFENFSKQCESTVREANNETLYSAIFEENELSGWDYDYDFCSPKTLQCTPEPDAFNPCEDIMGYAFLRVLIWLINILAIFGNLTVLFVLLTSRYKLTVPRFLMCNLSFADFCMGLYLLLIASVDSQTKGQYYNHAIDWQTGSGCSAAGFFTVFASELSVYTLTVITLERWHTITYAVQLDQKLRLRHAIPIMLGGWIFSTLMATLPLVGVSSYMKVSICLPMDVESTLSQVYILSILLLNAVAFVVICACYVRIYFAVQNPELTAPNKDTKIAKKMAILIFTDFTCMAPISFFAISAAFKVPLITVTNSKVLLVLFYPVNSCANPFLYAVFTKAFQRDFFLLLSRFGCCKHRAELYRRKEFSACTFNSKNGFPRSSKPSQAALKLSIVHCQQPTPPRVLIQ
Description: In male mice, the luteinising hormone (LH) induces testosterone production in testicular Leydig cells. […] The in vitro Leydig cell assay (van Damme et al, 1974; modified by Mannaerts et al, 1987) is used to determine the LH bioactivity of compounds that bind to the Leydig cell LH receptor which in turn causes testosterone production.
For this assay, Leydig cells are isolated from the testes of mature, 9 to 13 weeks old, mice (strain: HSD/Cpb: S E, Harlan, The Netherlands). Therefore, mice are killed and the testes are quickly removed and decapsulated. Each testis is transferred to a separate well of a tissue culture plate containing 0.75 ml culture medium per well. The contents of each well are passed through a 30 cm glass tube (inside diameter 2.5 mm, narrowed to 1.2 mm at 4 places in the middle). The suspension obtained is filtered through a 30 μm nylon mesh and the filtrate is pre-incubated in a 50 ml plastic tube for 30 min. at 37° C. in an incubator in a water-saturated atmosphere of 95% air/5% CO2. Following preincubation the tube is centrifuged at 1600 N/kg for 5 min and the supernatant is decanted. The resulting pellet is resuspended in culture medium (0.5 mg original testis/ml) and the suspension is kept homogeneous by stirring it very slowly on a magnetic stirrer.
This Leydig cell suspension (100 μl) is added to the wells of a micotiter plate containing 50 μl reference compound, test compound or vehicle (culture medium) per well. As a to reference, LH or hCG in-house standards are used which are calibrated against International Reference preparations of human LH or hCG provided by the National Institute for Biological Standards and Controls (NIBSC, London, UK). Test and reference compounds are dissolved, diluted and assayed in the same culture medium. The plates containing reference and test compounds are incubated for 4 h at 37° C. in an incubator in a water-saturated atmosphere of 95% air/5% CO2. Following incubation, plates are sealed and stored at −20° C. until testosterone measurement.
Prior to testosterone measurement, the contents of the microtiter plates are thawed at room temperature and the plates are centriged at 150 N/kg for 5 min. An aliquot of 30 μl supernatant of each well is diluted with culture medium (60×) to obtain a suitable dilution for testosterone measurement. Aliquots (12.5 μl) of each diluted test sample are then assayed using a direct testosterone RIA-kit.

Structure (SMILES)	EC50 [2] [nM]	Mouse in vivo ovulation induction (% ovulating animals) [1] [%]
COc1cccc(-c2nc(SC)nc3sc(C(=O)NC(C)(C)C)c(N)c23)c1 [Example 112, tert-Butyl 5-Amino-2-methylthio-4-(3-methoxyphenyl)-thieno[2,3-d]pyrimidine-6-carboxamide]	430	40
CSc1nc(-c2cccc(OCCCc3cccnc3)c2)c2c(N)c(C(=O)NC(C)(C)C)sc2n1 [Example 117, tert-Butyl 5-Amino-2-methylthio-4-(3-(3-(3-pyridyl)-propoxy)phenyl)-thieno[2,3-d]pyrimidine-6-carboxamide]	1800	40
COc1cccc(-c2nc(-c3cccs3)nc3sc(C(=O)N4CCOCC4)c(N)c23)c1 [Example 115, 5-Amino-2-(2-thienyl)-4-(3-methoxyphenyl)-6-(N-morpholinocarbonyl)thieno[2,3-d]pyrimidine]	3100	20
CSc1nc(-c2cccc(NC(=O)CNC(C)(C)C)c2)c2c(N)c(C(=O)NC(C)(C)C)sc2n1 [Example 116, tert-Butyl 5-Amino-2-methylthio-4-(N-(2-(tert-butylamino)acetyl)-3-aminophenyl)-thieno[2,3-d]pyrimidine-6-carboxamide]	320	13

Further lines, with some results ahead:

EC50 [2] [nM]	Structure (SMILES)	Mouse in vivo ovulation induction (% ovulating animals) [1] [%]
870	COc1cccc(-c2nc(SC)nc3sc(C(=O)N(C)C(C)C)c(N)c23)c1 [Example 113, N-Methyl-N-isopropyl 5-Amino-2-methylthio-4-(3-methoxyphenyl)-thieno[2,3-d]pyrimidine-6-carboxamide]	50
1900	CCOc1nc(-c2cccc(OC)c2)c2c(N)c(C(=O)NC(C)(C)C)sc2n1 [Example 114, tert-Butyl 5-Amino-2-ethoxy-4-(3-methoxyphenyl)-thieno[2,3-d]pyrimidine-6-carboxamide]	30
280	CSc1nc(-c2cccc(NC(=O)c3ccccc3)c2)c2c(N)c(C(=O)NC(C)(C)C)sc2n1 [Example 111, tert-Butyl 5-Amino-2-methylthio-4-(N-benzoyl-3-aminophenyl)-thieno[2,3-d]pyrimidine-6-carboxamide]	40
